What was measured:
Assay in all cases: Bliss excess, mean over the matrix (fraction); higher = more synergy
[1] = test system: SK-LMS-1 (Other Solid Carcinomas)
Outline: (§1)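 Bliss excess equals the observed combination effect minus the expected value EA + EB − EA·EB, where EA and EB are the effects of each agent alone. Combination Emax is the second-highest inhibition within the matrix. Inhibition was scaled from CellTiter-Glo 2.0 luminescence, with 0 set by vehicle wells and 1 by blank wells, after 72 hours of two-drug dosing of cells plated in 1536-well plates.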

Saos-2 (Osteosarcoma) = test system: Saos-2 (Osteosarcoma)
Outline: as §1

[2] = test system: MEG-01 (Chronic Myelogenous Leukemia)
Outline: as §1

[3] = test system: D-283MED (Other Solid Carcinomas)
Outline: as §1

[4] = test system: SK-UT-1 (Other Solid Carcinomas)
Outline: as §1

HCC38 (Breast Carcinoma) = test system: HCC38 (Breast Carcinoma)
Outline: as §1

[5] = test system: DOK (Oral Cavity Carcinoma)
Outline: as §1

EW-22 (Ewing's Sarcoma) = test system: EW-22 (Ewing's Sarcoma)
Outline: as §1

[6] = test system: TC-YIK (Other Solid Carcinomas)
Outline: as §1

H4 (Low Grade Glioma) = test system: H4 (Low Grade Glioma)
Outline: as §1

[7] = test system: YT (Other Blood Carcinomas)
Outline: as §1

[8] = test system: BICR78 (Oral Cavity Carcinoma)
Outline: as §1

[9] = test system: SLVL (B-Cell Non-Hodgkin's Lymphoma)
Outline: as §1

[10] = test system: HLE (Hepatocellular Carcinoma)
Outline: as §1

SMILES	Bliss excess [1]	Bliss excess (Saos-2 (Osteosarcoma))	Bliss excess [2]	Bliss excess [3]	Bliss excess [4]	Bliss excess (HCC38 (Breast Carcinoma))	Bliss excess [5]	Bliss excess (EW-22 (Ewing's Sarcoma))	Bliss excess [6]	Bliss excess (H4 (Low Grade Glioma))	Bliss excess [7]	Bliss excess [8]	Bliss excess [9]	Bliss excess [10]
C=CCn1c(=O)c2cnc(Nc3ccc(N4CCN(C)CC4)cc3)nc2n1-c1cccc(C(C)(C)O)n1 [AZD1775] + CCc1c2c(nc3ccc(O)cc13)-c1cc3c(c(=O)n1C2)COC(=O)[C@]3(O)CC [SN-38] (first compound max 1 µM, partner max 0.3 µM)	-0.0441	-0.0514	-0.0251	-0.0258	-0.032	-0.0765	-0.0096	-0.0286	-0.0451	0.015	-0.0418	-0.0403	-0.0701	-0.0436
C=CCn1c(=O)c2cnc(Nc3ccc(N4CCN(C)CC4)cc3)nc2n1-c1cccc(C(C)(C)O)n1 [AZD1775] + Nc1ccn([C@@H]2O[C@H](CO)[C@@H](O)C2(F)F)c(=O)n1 [Gemcitabine] (first compound max 1 µM, partner max 0.3 µM)	-0.027	-0.0728	-0.0001	0.0097	-0.0194	0.0214	-0.0216	-0.0431	-0.0642	-0.0148	0.0337	0.0412	-0.0357	0.0609
CN(CCO)CC[C@H](CSc1ccccc1)Nc1ccc(S(=O)(=O)NC(=O)c2ccc(N3CCC([C@@H](O)c4ccccc4-c4ccc(Cl)cc4)CC3)cc2)cc1S(=O)(=O)C(F)(F)F [AZD4320] + CC(=O)O[C@H]1C(=O)[C@@]2(C)[C@H]([C@H](OC(=O)c3ccccc3)[C@]3(O)C[C@H](OC(=O)[C@H](O)[C@@H](NC(=O)c4ccccc4)c4ccccc4)C(C)=C1C3(C)C)[C@]1(OC(C)=O)CO[C@@H]1C[C@@H]2O [Paclitaxel] (first compound max 1 µM, 7x7, partner max 3 µM)	0.0954	0.0937	-0.0006	-0.0081	-0.0007	0.0324	0.0565	0.0397	0.0183	-0.0229	-0.0079	0.0354	0.032	-0.0036
CN(CCO)CC[C@H](CSc1ccccc1)Nc1ccc(S(=O)(=O)NC(=O)c2ccc(N3CCC([C@@H](O)c4ccccc4-c4ccc(Cl)cc4)CC3)cc2)cc1S(=O)(=O)C(F)(F)F [AZD4320] + CS(=O)(=O)CCNCc1ccc(-c2ccc3ncnc(Nc4ccc(OCc5cccc(F)c5)c(Cl)c4)c3c2)o1 [Lapatinib] (first compound max 1 µM, 7x7, partner max 10 µM)	0.0357	0.083	0.103	0.013	0.006	0.0173	0.0402	0.0967	0.0065	-0.0113	0.0643	0.0251	0.0675	0.0535
CN(CCO)CC[C@H](CSc1ccccc1)Nc1ccc(S(=O)(=O)NC(=O)c2ccc(N3CCC([C@@H](O)c4ccccc4-c4ccc(Cl)cc4)CC3)cc2)cc1S(=O)(=O)C(F)(F)F [AZD4320] + Nc1ccn([C@@H]2O[C@H](CO)[C@@H](O)C2(F)F)c(=O)n1 [Gemcitabine] (first compound max 1 µM, 7x7, partner max 0.3 µM)	0.0273	0.121	0.0059	-0.0335	0.0159	-0.0171	0.0797	0.0287	-0.0091	0.0194	-0.0591	-0.0581	-0.0135	0.0579
Cc1c2c(nn1C)CSCc1cc(n(C)n1)CSc1cc(c3ccccc3c1)OCCCc1c(C(=O)O)n(C)c3c-2c(Cl)ccc13 [AZD5991] + CC(=O)O[C@H]1C(=O)[C@@]2(C)[C@H]([C@H](OC(=O)c3ccccc3)[C@]3(O)C[C@H](OC(=O)[C@H](O)[C@@H](NC(=O)c4ccccc4)c4ccccc4)C(C)=C1C3(C)C)[C@]1(OC(C)=O)CO[C@@H]1C[C@@H]2O [Paclitaxel] (first compound max 1 µM, 7x7, partner max 3 µM)	-0.0569	0.0358	0.12	-0.0552	0.008	-0.0632	-0.0004	-0.0122	-0.0709	0.0003	-0.0159	-0.0412	-0.0181	-0.0411
Cc1c2c(nn1C)CSCc1cc(n(C)n1)CSc1cc(c3ccccc3c1)OCCCc1c(C(=O)O)n(C)c3c-2c(Cl)ccc13 [AZD5991] + CS(=O)(=O)CCNCc1ccc(-c2ccc3ncnc(Nc4ccc(OCc5cccc(F)c5)c(Cl)c4)c3c2)o1 [Lapatinib] (first compound max 1 µM, 7x7, partner max 10 µM)	-0.0101	-0.0071	-0.0318	–	0.032	-0.0638	0.111	-0.0028	-0.0418	0.0407	0.0331	-0.0065	0.0502	0.0311
Cc1c2c(nn1C)CSCc1cc(n(C)n1)CSc1cc(c3ccccc3c1)OCCCc1c(C(=O)O)n(C)c3c-2c(Cl)ccc13 [AZD5991] + Nc1ccn([C@@H]2O[C@H](CO)[C@@H](O)C2(F)F)c(=O)n1 [Gemcitabine] (first compound max 1 µM, 7x7, partner max 0.3 µM)	-0.009	0.0374	-0.0412	0.0121	-0.0367	-0.0432	-0.0008	-0.0071	-0.0315	-0.0393	0.0413	-0.0851	-0.014	0.0249
C[C@@H]1COCCN1c1cc(C2([S@](C)(=N)=O)CC2)nc(-c2ccnc3[nH]ccc23)n1 [AZD6738] + C1CC(C1)(C(=O)[O-])C(=O)[O-].N.N.[Pt+2] [Carboplatin] (first compound max 10 µM, 7x7, partner max 10 µM)	-0.032	-0.0302	-0.0513	–	-0.0214	-0.0516	0.0086	-0.0301	-0.0631	0.0025	-0.0397	-0.0459	-0.0419	0.0173
C[C@@H]1COCCN1c1cc(C2([S@](C)(=N)=O)CC2)nc(-c2ccnc3[nH]ccc23)n1 [AZD6738] + Nc1ccn([C@@H]2O[C@H](CO)[C@@H](O)C2(F)F)c(=O)n1 [Gemcitabine] (first compound max 10 µM, 7x7, partner max 0.3 µM)	0.0139	0.0312	-0.0258	-0.0179	0.0317	0.0715	0.0785	0.0068	-0.0046	0.0184	0.124	0.0298	-0.0284	0.105
Cc1cc2ncnn2cc1Nc1ncc2c(n1)n(C1CCOCC1)c(=O)n2C [AZD7648] + COc1cc([C@@H]2c3cc4c(cc3[C@@H](O[C@@H]3O[C@@H]5CO[C@@H](C)O[C@H]5[C@H](O)[C@H]3O)[C@H]3COC(=O)[C@H]23)OCO4)cc(OC)c1O [Etoposide] (first compound max 10 µM, 7x7, partner max 10 µM)	0.172	0.054	0.102	0.0835	0.117	0.0373	0.109	0.112	0.0886	0.0976	0.0495	0.0789	0.0824	0.116
C[C@@H](Nc1cc(F)cc(F)c1)c1cc(C(=O)N(C)C)cc2c(=O)cc(N3CCOCC3)oc12 [AZD8186] + C1CN(CCC1(C(=O)N[C@@H](CCO)C2=CC=C(C=C2)Cl)N)C3=NC=NC4=C3C=CN4 [AZD5363] (first compound max 10 µM, 7x7, partner max 10 µM)	0.0606	0.0104	-0.0906	-0.0143	0.0224	-0.0395	-0.0231	-0.0197	-0.0292	-0.0049	-0.0175	-0.0269	0.0553	0.0045
C[C@@H](Nc1cc(F)cc(F)c1)c1cc(C(=O)N(C)C)cc2c(=O)cc(N3CCOCC3)oc12 [AZD8186] + CC(=O)c1c(C)c2cnc(Nc3ccc(N4CCNCC4)cn3)nc2n(C2CCCC2)c1=O [Palbociclib] (first compound max 10 µM, 7x7, partner max 10 µM)	0.147	-0.0181	-0.0585	0.113	0.008	-0.0466	0.0079	0.05	0.036	0.122	0.0407	-0.0525	0.0035	0.0326
C[C@@H](Oc1cc(-c2cnn(C3CCNCC3)c2)cnc1N)c1c(Cl)ccc(F)c1Cl [Crizotinib] + CC1=C(C(=CC=C1)Cl)NC(=O)C2=CN=C(S2)NC3=CC(=NC(=N3)C)N4CCN(CC4)CCO [Dasatinib] (first compound max 10 µM, 7x7, partner max 2 µM)	0.153	0.0807	0.0253	0.0947	0.0539	0.0255	-0.0008	-0.0466	-0.0378	0.0857	0.0714	0.0142	0.0167	0.0195

Reference: the supplement of paper PMC11061612
